Data as given in patent US20100298141A1, “SUBSTITUTED PYRIDINE N-OXIDE HERBICIDES” (E. I. DU PONT DE NEMOURS AND COMPANY, priority 2007, published 2010).

Tests used:
catchweed bedstraw = test: Test C pre-/postemergence test; assay type: in vivo, Galium aparine; conditions: for Plant response rating, Galium: scale 0 to 100 (0 no effect, 100 complete control)
Text: (§1) Seeds of plant species selected from blackgrass (Alopecurus myosuroides), downy brome (Bromus tectorum), green foxtail (Setaria viridis), Italian ryegrass (Lolium multiflorum), wheat (Triticum aestivum), wild oat (Avena fatua), catchweed bedstraw (Galium aparine), Russian thistle (Salsola kali), […] (Cynodon dactylon), Surinam grass (Brachiaria decumbens), cocklebur (Xanthium strumarium), corn (Zea mays), crabgrass (Digitaria sanguinalis), woolly cupgrass (Eriochloa villosa), giant foxtail (Setaria faberii), Goosegrass (Eleusin indica), johnsongrass (Sorghum halepense), kochia (Kochia scoparia), lambsquarters (Chenopodium album), morningglory (Ipomoea coccinea), eastern black nightshade (Solanum ptycanthum), yellow nutsedge (Cyperus esculentus), pigweed (Amaranthus retroflexus), common ragweed (Ambrosia elation), soybean (Glycine max), common (oilseed) sunflower (Helianthus annuus), and velvetleaf (Abutilon theophrasti) were planted and treated preemergence with test chemicals formulated in a non-phytotoxic solvent mixture which included a surfactant. At the same time, plants selected from these crop and weed species and also winter barley (Hordeum vulgare), canarygrass (Phalaris minor), and chickweed (Stellaria media) were treated with postemergence applications of some of the test chemicals formulated in the same manner. Plants ranged in height from 2 to 18 cm (1- to 4-leaf stage) for postemergence treatments. […] At time of treatment, test pots were flooded to 3 cm above the soil surface, treated by application of test compounds directly to the paddy water, and then maintained at that water depth for the duration of the test. […] A dash (-) response means no test result.

downy brome = test: Test C pre-/postemergence test; assay type: in vivo, Bromus tectorum
Text: as §1

crabgrass = test: Test A pre-/postemergence greenhouse test; assay type: in vivo, Digitaria sanguinalis; conditions: for Crabgrass, Large plant response rating: 0 to 100 scale; for Plant response rating, Crabgrass, Large: 0 to 100 scale where 0 is no effect and 100 is complete control
In short: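 Greenhouse herbicide screen, pre- and postemergence in parallel. Soil: loam plus sand. Formulation: non-phytotoxic solvent mix with surfactant. Postemergence stage: one to two leaves, 2–10 cm height. Evaluation: visual injury, compared with untreated controls, about 10 days after treatment.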

[1] = 62 g ai/ha, Preemergence, scale 0 to 100
[2] = 125 g ai/ha, preemergence, scale 0 (no effect) to 100 (complete control)
[3] = preemergence, 250 g ai/ha, scale 0 (no effect) to 100 (complete control)
[4] = Preemergence, 31 g ai/ha, scale 0 to 100 (0 no effect, 100 complete control)
[5] = Postemergence, 125 g ai/ha, 0 is no effect, 100 is complete control
[6] = Postemergence, 500 g ai/ha, 0 is no effect, 100 is complete control
[7] = Preemergence, 125 g ai/ha, 0 no effect, 100 complete control
[8] = Postemergence, 62 g ai/ha, scale 0 to 100, 0 no effect, 100 complete control
[9] = Postemergence, 125 g ai/ha, scale 0 to 100, 0 no effect, 100 complete control
[10] = Postemergence, 250 g ai/ha, scale 0 to 100, 0 no effect, 100 complete control
[11] = preemergence, 125 g ai/ha, scale 0 (no effect) to 100 (complete control)
[12] = 31 g ai/ha, Preemergence, scale 0 to 100
[13] = 62 g ai/ha, preemergence, scale 0 (no effect) to 100 (complete control)

Cn1nc(C(F)(F)F)c(C[S+]([O-])c2cc(F)cc[n+]2[O-])c1Cl (racemic) [Compound 42]
Galium plant response rating (catchweed bedstraw; [1]): 50 | Galium plant response rating (catchweed bedstraw; [2]): 100 | Plant response rating, Galium (catchweed bedstraw; Preemergence, 31 g ai/ha): 0 | Galium plant response rating (catchweed bedstraw; [3]): 100 | Bromegrass, Downy plant response rating (downy brome; [1]): 15 | Bromegrass, Downy plant response rating (downy brome; [2]): 45 | Plant response rating, Bromegrass, Downy (downy brome; [4]): 10 | Bromegrass, Downy plant response rating (downy brome; [3]): 70 | Crabgrass, Large plant response rating (crabgrass; [5]): 80 | Crabgrass, Large plant response rating (crabgrass; [6]): 90 | Crabgrass, Large plant response rating (crabgrass; [7]): 70 | Plant response rating, Crabgrass, Large (crabgrass; Preemergence, 500 g ai/ha): 100

CC(C)c1cc[n+]([O-])c([S+]([O-])Cc2c(C(F)(F)F)nn(C)c2OC(F)F)c1 (stereo not shown) [Compound 109]
Galium plant response rating (catchweed bedstraw; [1]): 90 | Galium plant response rating (catchweed bedstraw; [2]): 100 | Plant response rating, Galium (catchweed bedstraw; Preemergence, 31 g ai/ha): 60 | Galium plant response rating (catchweed bedstraw; [3]): 100 | Bromegrass, Downy plant response rating (downy brome; [1]): 40 | Bromegrass, Downy plant response rating (downy brome; [2]): 95 | Plant response rating, Bromegrass, Downy (downy brome; [4]): 40 | Bromegrass, Downy plant response rating (downy brome; [3]): 100 | Plant response rating, Crabgrass, Large (crabgrass; Postemergence, 125 g ai/ha): 60 | Crabgrass, Large plant response rating (crabgrass; [6]): 90 | Crabgrass, Large plant response rating (crabgrass; [7]): 90 | Crabgrass, Large plant response rating (crabgrass; Preemergence, 500 g ai/ha, 0 no effect, 100 complete control): 100

CCn1nc(C(F)(F)F)c(C[S+]([O-])c2cccc[n+]2[O-])c1OCC(F)(F)F (racemic) [Compound 65]
Bromegrass, Downy plant response rating (downy brome; [1]): 100 | Bromegrass, Downy plant response rating (downy brome; [2]): 100 | Plant response rating (0 to 100), Bromegrass, Downy (downy brome; Postemergence, 31 g ai/ha): 0 | Plant response rating, Bromegrass, Downy (downy brome; [8]): 10 | Plant response rating, Bromegrass, Downy (downy brome; [9]): 30 | Plant response rating, Bromegrass, Downy (downy brome; [10]): 75 | Plant response rating, Bromegrass, Downy (downy brome; [4]): 65 | Bromegrass, Downy plant response rating (downy brome; [3]): 100 | Plant response rating, Crabgrass, Large (crabgrass; Postemergence, 125 g ai/ha): 80 | Crabgrass, Large plant response rating (crabgrass; [6]): 90 | Crabgrass, Large plant response rating (crabgrass; [7]): 90 | Plant response rating, Crabgrass, Large (crabgrass; Preemergence, 500 g ai/ha): 100

CCn1nc(C(F)(F)F)c(C(C)S(=O)(=O)c2cccc[n+]2[O-])c1OCC(F)(F)F (stereo not shown) [Compound 69]
Plant response rating (0 to 100), Bromegrass, Downy (downy brome; Postemergence, 31 g ai/ha): 0 | Plant response rating, Bromegrass, Downy (downy brome; [8]): 0 | Plant response rating, Bromegrass, Downy (downy brome; [9]): 10 | Plant response rating, Bromegrass, Downy (downy brome; [10]): 45 | Plant response rating, Crabgrass, Large (crabgrass; Postemergence, 125 g ai/ha): 80 | Crabgrass, Large plant response rating (crabgrass; [6]): 90 | Crabgrass, Large plant response rating (crabgrass; [7]): 40 | Plant response rating, Crabgrass, Large (crabgrass; Preemergence, 500 g ai/ha): 100

Cn1nc(C(F)(F)F)c(C[S+]([O-])c2cc(Cl)cc[n+]2[O-])c1Cl (racemic) [Compound 39]
Crabgrass, Large plant response rating (crabgrass; [5]): 80 | Crabgrass, Large plant response rating (crabgrass; [6]): 80 | Crabgrass, Large plant response rating (crabgrass; [7]): 90 | Plant response rating, Crabgrass, Large (crabgrass; Preemergence, 500 g ai/ha): 90

Cn1nc(C(F)(F)F)c(C[S+]([O-])c2ccc(Cl)c[n+]2[O-])c1Cl (racemic) [Compound 17]
Plant response rating, Galium (catchweed bedstraw; Preemergence, 31 g ai/ha): 100 | Plant response rating (0 to 100), Galium (catchweed bedstraw; Preemergence, 250 g ai/ha): 100 | Bromegrass, Downy plant response rating (downy brome; [1]): 40 | Plant response rating, Bromegrass, Downy (downy brome; [4]): 40 | Plant response rating (0 to 100), Bromegrass, Downy (downy brome; Preemergence, 250 g ai/ha): 85 | Bromegrass, Downy plant response rating (downy brome; [11]): 80 | Crabgrass, Large plant response rating (crabgrass; [5]): 80 | Crabgrass, Large plant response rating (crabgrass; [6]): 90 | Crabgrass, Large plant response rating (crabgrass; [7]): 90 | Plant response rating, Crabgrass, Large (crabgrass; Preemergence, 500 g ai/ha): 100

Cn1nc(C(F)(F)F)c(CS(=O)(=O)c2cccc[n+]2[O-])c1Cl [Compound 9]
Galium plant response rating (catchweed bedstraw; [12]): 0 | Galium plant response rating (catchweed bedstraw; [13]): 100 | Plant response rating (0 to 100), Galium (catchweed bedstraw; Preemergence, 250 g ai/ha): 100 | Galium plant response rating (catchweed bedstraw; [11]): 100 | Bromegrass, Downy plant response rating (downy brome; [12]): 0 | Bromegrass, Downy plant response rating (downy brome; [13]): 0 | Plant response rating (0 to 100), Bromegrass, Downy (downy brome; Preemergence, 250 g ai/ha): 20 | Bromegrass, Downy plant response rating (downy brome; [11]): 20 | Crabgrass, Large plant response rating (crabgrass; [5]): 80 | Crabgrass, Large plant response rating (crabgrass; [6]): 90 | Crabgrass, Large plant response rating (crabgrass; [7]): 100 | Plant response rating, Crabgrass, Large (crabgrass; Preemergence, 500 g ai/ha): 100
